We go through one compound from patent publication US10980776B2, “Synergistic pharmaceutical combination for the treatment of squamous cell carcinoma of head and neck” (Piramal Enterprises Limited, priority 2011, dated 2021).

For assay [1], the system named is Detroit-562 cells. The assay is described as follows: Combination studies (single and sequential combination dosing), % cytotoxicity in Detroit-562 cells. To be noted: Homo sapiens, Detroit 562, Detroit-562; for cytotoxicity at 14.1 µM: single agent at IC50 (compound B 14.1 μM); for cytotoxicity at 25.2 µM: single agent at IC70 (compound B 25.2 μM). The protocol: (§1) Logarithmically growing cells were plated at a density of 3×10^3 cells/well and allowed to recover overnight. […] After 72 hours, cell toxicity was determined by CCK-8 (Cell Counting Kit-8) reagent (Dojindo Molecular Technologies, Japan); WST-8 (2-(2-methoxy-4-nitrophenyl)-3-(4-nitrophenyl)-5-(2, 4-disulfophenyl)]-2H-tetrazolium, monosodium salt) assay. In accordance with the manufacturer's instructions, 5 μl/well CCK-8 reagent was added and plates were incubated for 2 hours. The toxicity was determined by measuring the absorbance on Tecan Sapphire multi-fluorescence micro-plate reader (Tecan, Germany, GmbH) at a wavelength of 450 nm corrected to 650 nm and normalized to controls.
(§2) CCK-8 allows convenient assays using Dojindo's tetrazolium salt, WST [8[(2-(2-methoxy-4-nitrophenyl)-3-(4-nitrophenyl)-5-(2,4-disulfophenyl)-2H-tetrazolium, monosodium salt], which produces a water-soluble formazan dye upon bioreduction in the presence of an electron carrier, 1-Methoxy PMS. CCK-8 solution is added directly to the cells; no pre-mixing of components is required. CCK-8 is a sensitive nonradioactive colorimetric assay for determining the number of viable cells in cell proliferation and cytotoxicity assays. WST-8 is bio-reduced by cellular dehydrogenases to an orange formazan product that is soluble in tissue culture medium. The amount of formazan produced is directly proportional to the number of living cells. The detection sensitivity of cell proliferation assays using WST-8 is higher than assays using the other tetrazolium salts such as MIT, XTT, MTS or WST-1. Optical Density was determined at measurement wavelength of 450 nm and reference wave length of 630 nm.
Sorafenib in the following dose of final concentration 1.8 μM and compound A in the following doses of final concentration 0.5 μM, 1.3 μM and 12.1 μM were analyzed in single dose and in all possible combinations of the dose range for the two anticancer agents mentioned above. The sequence of treatment is as follows; Detroit-562 cells were treated with sorafenib for 0 to 24 hrs. At the end of 24 hrs the cells were washed two times with plain MEM medium. Fresh MEM with 10% serum (200 μL/well) was added, followed by treatment with compound A from 24 hrs to 96 hrs.
Sorafenib in the following dose of final concentration 1.8 μM and compound B in the following doses of final concentration 2.7 μM, 14.1 μM and 25.2 μM were analyzed in single dose and in all possible combinations of the dose range for the two anticancer agents mentioned above. The sequence of treatment is as follows; the Detroit-562 cells were treated with sorafenib for 0 to 24 hrs. At the end of 24 hrs the cells were washed two times with plain MEM medium. Fresh MEM with 10% serum (200 μL/well) was added, followed by treatment with compound B from 24 hrs to 96 hrs.
Lapatinib in the following dose of final concentration 1 μM and compound A in the following doses of final concentration 0.5 μM, 1.3 μM and 12.1 μM were analyzed in single dose and in all possible combinations of the dose range for the two anticancer agents mentioned above. The sequence of treatment is as follows; the Detroit-562 cells were treated with lapatinib for 0 to 24 hrs. At the end of 24 hrs the cells were washed two times with plain MEM medium. Fresh MEM with 10% serum (200 μL/well) was added, followed by treatment with compound A from 24 hrs to 96 hrs.
Lapatinib in the following dose of final concentration 1.0 μM and compound B in the following doses of final concentration 2.7 μM, 14.1 μM and 25.2 μM were analyzed in single dose and in all possible combinations of the dose range for the two drugs mentioned above. The sequence of treatment is as follows; the Detroit-562 cells were treated with lapatinib for 0 to 24 hrs. At the end of 24 hrs the cells were washed two times with plain MEM medium. Fresh MEM with 10% serum (200 μL/well) was added, followed by treatment with compound A from 24 hrs to 96 hrs.

Assay [2] has as its system Detroit-562 cells. The assay is described as follows: CCK-8 cytotoxicity assay, determination of inhibitory concentrations in Detroit-562 cells. The format is cell-based. Particulars: 72 hr. The protocol: as §1, §2
The cells were seeded at a density of 3000 cells/well, in a 200 μL in tissue culture grade 96 well plate and were allowed to recover for 24 hrs in a humidified 5%±0.2 CO2 incubator at 37° C.±0.5° C. […] The final DMSO concentration was 0.5% in wells. Plates were incubated for 48 hrs in humidified 5%±0.2 CO2 incubator at 37±0.5° C. After 48 hrs the plates were removed from CO2 incubator and 5 μL of Cell counting Kit (CCK-8) per well was added. The same plate was kept at 37° C. for 3 hrs, and allowed to come to room temperature. The absorbance at a wavelength of 450 nm was read on Tecan safire reader. The percent cytotoxicity was calculated using the following formula.
(Tetrazolium assays rely on reduction of a dye to a coloured formazan, in cell work by metabolically active cells.)

pIC50: −log10 of the molar value.

By IC30 is commonly meant the point of the concentration-response curve where the effect stands at 30%. As a reminder, the IC70 is the point of the concentration-response curve where the effect stands at 70%. A lower IC70 goes with greater potency. The pIC50 is the IC50 on a negative log10 scale, so that one unit is a factor of ten. For orientation: IC90 means the concentration at which the effect reaches the 90% level. Low values mean greater potency, high ones weaker potency. Turning to `CN1CC[C@@H](c2c(O)cc(O)c3c(=O)cc(-c4ccc(C(F)(F)F)cc4Cl)oc23)[C@@H]1CO.Cl` [Compound B, (+)-trans-2-(2-chloro-4-trifluoromethyl-phenyl)-5,7-dihydroxy-8-(2-hydroxymethyl-1-methyl-pyrrolidin-3-yl)-chromen-4-one hydrochloride], the cytotoxicity at 2.7 µM in assay [1] (single agent at IC30 (lapatinib 1.0 μM; compound B 2.7 μM)) is 15%. For the same compound, in assay [1] (single agent at IC30 (sorafenib 1.8 μM; compound B 2.7 μM)), the cytotoxicity at 2.7 µM turned out to be 15%. For the same compound, in assay [1] (lapatinib study), the cytotoxicity at 14.1 µM is 18% and the cytotoxicity at 25.2 µM was determined as 30%. Besides, in assay [1] (sorafenib study), the cytotoxicity at 14.1 µM was determined as 19% and the cytotoxicity at 25.2 µM was 26%. Further, in assay [2], the IC30 came out at 2.7 µM and the IC70 worked out at 25.2 µM. In assay [2] (Homo sapiens), this compound had a pIC50 of 4.85 and an IC90 of 44.6 µM.
